Key:
[1] = target: Ephrin type-A receptor 2 (Homo sapiens) (UniProt P29317); conditions: Compound concentration 1000.0 nM
[2] = target: P2Y purinoceptor 2 (Homo sapiens) (UniProt P41231); experiment: P2Y2 (h) Eurofins-Cerep Cellular and Nuclear Receptor Functional Assays; conditions: Compound concentration 10.0 uM
[3] = target: Phosphatidylinositol 3-kinase C2 domain-containing subunit gamma (Homo sapiens) (UniProt O75747); conditions: Compound concentration 1000.0 nM
[4] = target: Mitogen-activated protein kinase 10 (Homo sapiens) (UniProt P53779); conditions: Compound concentration 1000.0 nM
[5] = target: TRAF2 and NCK-interacting protein kinase (Homo sapiens) (UniProt Q9UKE5); conditions: Compound concentration 1000.0 nM
[6] = target: Dual specificity mitogen-activated protein kinase kinase 2 (Homo sapiens) (UniProt P36507); conditions: Compound concentration 1000.0 nM
[7] = target: Mitogen-activated protein kinase kinase kinase 2 (Homo sapiens) (UniProt Q9Y2U5); conditions: Compound concentration 1000.0 nM
[8] = target: 5'-AMP-activated protein kinase catalytic subunit alpha-2 (Homo sapiens) (UniProt P54646); conditions: Compound concentration 1000.0 nM
[9] = target: Serine/threonine-protein kinase DCLK1 (Homo sapiens) (UniProt O15075); conditions: Compound concentration 1000.0 nM
[10] = target: Substance-P receptor (Homo sapiens) (UniProt P25103); experiment: NK1 (h) Eurofins-Cerep Cellular and Nuclear Receptor Functional Assays; conditions: Compound concentration 10.0 uM
[11] = system: Tyrosine-protein kinase ABL1 (Homo sapiens), P00519 [Y253F]; conditions: Compound concentration 1000.0 nM
[12] = target: Cyclin-dependent kinase 4 (Homo sapiens) (UniProt P11802); conditions: Compound concentration 1000.0 nM
[13] = target: Phosphatidylinositol 5-phosphate 4-kinase type-2 gamma (Homo sapiens) (UniProt Q8TBX8); conditions: Compound concentration 1000.0 nM
[14] = system: Hepatocyte growth factor receptor (Homo sapiens), P08581 [M1250T]; conditions: Compound concentration 1000.0 nM
[15] = target: Mitogen-activated protein kinase kinase kinase 6 (Homo sapiens) (UniProt O95382); conditions: Compound concentration 1000.0 nM
[16] = target: Ribosomal protein S6 kinase alpha-5 (Homo sapiens) (UniProt O75582); conditions: Compound concentration 1000.0 nM
[17] = target: Mitogen-activated protein kinase 12 (Homo sapiens) (UniProt P53778); conditions: Compound concentration 1000.0 nM
[18] = target: Homeodomain-interacting protein kinase 4 (Homo sapiens) (UniProt Q8NE63); conditions: Compound concentration 1000.0 nM
[19] = target: Protein kinase C delta type (Homo sapiens) (UniProt Q05655); conditions: Compound concentration 1000.0 nM
[20] = target: SRSF protein kinase 1 (Homo sapiens) (UniProt Q96SB4); conditions: Compound concentration 1000.0 nM
[21] = system: Hepatocyte growth factor receptor (Homo sapiens), P08581 [Y1235D]; conditions: Compound concentration 1000.0 nM
[22] = system: Receptor-type tyrosine-protein kinase FLT3 (Homo sapiens), P36888 [D835Y]; conditions: Compound concentration 1000.0 nM
[23] = target: Death-associated protein kinase 3 (Homo sapiens) (UniProt O43293); conditions: Compound concentration 1000.0 nM
[24] = target: Tyrosine-protein kinase Blk (Homo sapiens) (UniProt P51451); conditions: Compound concentration 1000.0 nM
[25] = target: Serine/threonine-protein kinase 35 (Homo sapiens) (UniProt Q8TDR2); conditions: Compound concentration 1000.0 nM
[26] = target: Phosphatidylinositol 4,5-bisphosphate 3-kinase catalytic subunit beta isoform (Homo sapiens) (UniProt P42338); conditions: Compound concentration 1000.0 nM
[27] = target: Protein-tyrosine kinase 6 (Homo sapiens) (UniProt Q13882); conditions: Compound concentration 1000.0 nM
[28] = target: Citron Rho-interacting kinase (Homo sapiens) (UniProt O14578); conditions: Compound concentration 1000.0 nM
[29] = target: Serine/threonine-protein kinase Nek2 (Homo sapiens) (UniProt P51955); conditions: Compound concentration 1000.0 nM
[30] = system: Phosphatidylinositol 4,5-bisphosphate 3-kinase catalytic subunit alpha isoform (Homo sapiens), P42336 [E545K]; conditions: Compound concentration 1000.0 nM
[31] = target: Myosin light chain kinase (Homo sapiens) (UniProt Q32MK0); conditions: Compound concentration 1000.0 nM
[32] = target: Ephrin type-A receptor 5 (Homo sapiens) (UniProt P54756); conditions: Compound concentration 1000.0 nM
[33] = target: T1, Muscarinic acetylcholine receptor M1 (Homo sapiens) (UniProt P11229); experiment: M1 (h) Eurofins-Cerep Cellular and Nuclear Receptor Functional Assays; conditions: Compound concentration 10.0 uM
T1 sequence (whole entry): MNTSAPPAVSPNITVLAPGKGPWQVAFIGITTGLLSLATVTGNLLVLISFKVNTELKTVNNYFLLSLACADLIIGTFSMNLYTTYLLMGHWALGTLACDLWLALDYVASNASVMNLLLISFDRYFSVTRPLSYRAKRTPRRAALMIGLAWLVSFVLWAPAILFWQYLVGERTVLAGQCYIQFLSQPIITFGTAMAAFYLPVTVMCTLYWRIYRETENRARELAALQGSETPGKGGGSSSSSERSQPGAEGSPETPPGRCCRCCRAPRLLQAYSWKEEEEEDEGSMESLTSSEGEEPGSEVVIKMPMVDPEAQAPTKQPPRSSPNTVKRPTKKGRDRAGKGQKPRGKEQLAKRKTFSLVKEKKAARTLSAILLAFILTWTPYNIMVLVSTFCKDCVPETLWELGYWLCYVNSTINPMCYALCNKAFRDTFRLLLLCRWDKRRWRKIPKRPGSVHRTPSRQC

[34] = target: Casein kinase I isoform alpha (Homo sapiens) (UniProt P48729); conditions: Compound concentration 1000.0 nM
[35] = target: Ribosomal protein S6 kinase alpha-3 (Homo sapiens) (UniProt P51812); conditions: Compound concentration 1000.0 nM
[36] = target: Serine/threonine-protein kinase Nek1 (Homo sapiens) (UniProt Q96PY6); conditions: Compound concentration 1000.0 nM
[37] = target: Calcium/calmodulin-dependent protein kinase type II subunit gamma (Homo sapiens) (UniProt Q13555); conditions: Compound concentration 1000.0 nM
[38] = target: Beta-adrenergic receptor kinase 1 (Homo sapiens) (UniProt P25098); conditions: Compound concentration 1000.0 nM

Chain of Substance-P receptor (Homo sapiens) (P25103 whole entry): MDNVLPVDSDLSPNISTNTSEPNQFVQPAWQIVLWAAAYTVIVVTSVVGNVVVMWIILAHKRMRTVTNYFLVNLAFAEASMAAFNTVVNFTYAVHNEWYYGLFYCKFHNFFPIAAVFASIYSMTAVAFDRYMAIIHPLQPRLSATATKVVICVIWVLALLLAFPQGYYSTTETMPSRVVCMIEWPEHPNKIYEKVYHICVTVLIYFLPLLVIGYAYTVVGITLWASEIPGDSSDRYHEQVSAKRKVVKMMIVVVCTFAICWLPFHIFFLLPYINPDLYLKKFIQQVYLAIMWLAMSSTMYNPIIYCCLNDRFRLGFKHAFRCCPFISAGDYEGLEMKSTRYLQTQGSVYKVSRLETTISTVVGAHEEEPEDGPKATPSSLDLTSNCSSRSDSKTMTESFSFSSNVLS
Chain of P2Y purinoceptor 2 (Homo sapiens) (P41231 whole entry, the tested form may be a part): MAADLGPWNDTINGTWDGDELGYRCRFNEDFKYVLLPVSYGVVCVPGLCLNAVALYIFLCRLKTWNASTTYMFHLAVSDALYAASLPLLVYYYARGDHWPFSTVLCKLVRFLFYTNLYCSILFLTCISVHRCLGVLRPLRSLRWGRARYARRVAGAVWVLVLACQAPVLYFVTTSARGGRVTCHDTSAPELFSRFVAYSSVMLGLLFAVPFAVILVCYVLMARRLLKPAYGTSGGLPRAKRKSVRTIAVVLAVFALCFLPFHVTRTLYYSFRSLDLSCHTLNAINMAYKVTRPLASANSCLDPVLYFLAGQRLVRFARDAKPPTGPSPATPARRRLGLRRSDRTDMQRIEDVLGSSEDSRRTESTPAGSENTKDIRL
Chain of Serine/threonine-protein kinase Nek2 (Homo sapiens) (P51955 whole entry, canonical isoform): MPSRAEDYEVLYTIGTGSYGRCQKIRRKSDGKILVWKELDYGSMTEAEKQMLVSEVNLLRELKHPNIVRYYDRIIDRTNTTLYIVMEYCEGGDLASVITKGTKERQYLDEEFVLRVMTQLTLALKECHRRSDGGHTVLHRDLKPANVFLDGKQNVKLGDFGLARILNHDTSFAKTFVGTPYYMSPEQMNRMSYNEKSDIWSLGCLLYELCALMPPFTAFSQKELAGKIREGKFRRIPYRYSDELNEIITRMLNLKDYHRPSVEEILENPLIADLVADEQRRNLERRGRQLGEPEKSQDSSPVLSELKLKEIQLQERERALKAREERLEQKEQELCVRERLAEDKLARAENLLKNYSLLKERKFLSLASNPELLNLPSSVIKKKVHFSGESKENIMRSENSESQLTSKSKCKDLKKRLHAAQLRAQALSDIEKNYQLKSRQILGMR
Chain of Dual specificity mitogen-activated protein kinase kinase 2 (Homo sapiens) (P36507 whole entry): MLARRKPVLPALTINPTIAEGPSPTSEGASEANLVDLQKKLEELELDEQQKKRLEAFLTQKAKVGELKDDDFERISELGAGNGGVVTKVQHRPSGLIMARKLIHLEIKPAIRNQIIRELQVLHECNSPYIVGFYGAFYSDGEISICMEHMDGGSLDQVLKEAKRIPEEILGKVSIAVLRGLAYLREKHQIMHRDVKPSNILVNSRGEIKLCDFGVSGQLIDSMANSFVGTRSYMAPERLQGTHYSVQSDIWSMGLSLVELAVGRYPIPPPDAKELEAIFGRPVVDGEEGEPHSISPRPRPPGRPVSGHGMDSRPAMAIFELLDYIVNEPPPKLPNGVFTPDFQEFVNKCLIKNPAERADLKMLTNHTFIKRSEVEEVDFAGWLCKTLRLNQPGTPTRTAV
Chain of TRAF2 and NCK-interacting protein kinase (Homo sapiens) (Q9UKE5 whole entry, looked up): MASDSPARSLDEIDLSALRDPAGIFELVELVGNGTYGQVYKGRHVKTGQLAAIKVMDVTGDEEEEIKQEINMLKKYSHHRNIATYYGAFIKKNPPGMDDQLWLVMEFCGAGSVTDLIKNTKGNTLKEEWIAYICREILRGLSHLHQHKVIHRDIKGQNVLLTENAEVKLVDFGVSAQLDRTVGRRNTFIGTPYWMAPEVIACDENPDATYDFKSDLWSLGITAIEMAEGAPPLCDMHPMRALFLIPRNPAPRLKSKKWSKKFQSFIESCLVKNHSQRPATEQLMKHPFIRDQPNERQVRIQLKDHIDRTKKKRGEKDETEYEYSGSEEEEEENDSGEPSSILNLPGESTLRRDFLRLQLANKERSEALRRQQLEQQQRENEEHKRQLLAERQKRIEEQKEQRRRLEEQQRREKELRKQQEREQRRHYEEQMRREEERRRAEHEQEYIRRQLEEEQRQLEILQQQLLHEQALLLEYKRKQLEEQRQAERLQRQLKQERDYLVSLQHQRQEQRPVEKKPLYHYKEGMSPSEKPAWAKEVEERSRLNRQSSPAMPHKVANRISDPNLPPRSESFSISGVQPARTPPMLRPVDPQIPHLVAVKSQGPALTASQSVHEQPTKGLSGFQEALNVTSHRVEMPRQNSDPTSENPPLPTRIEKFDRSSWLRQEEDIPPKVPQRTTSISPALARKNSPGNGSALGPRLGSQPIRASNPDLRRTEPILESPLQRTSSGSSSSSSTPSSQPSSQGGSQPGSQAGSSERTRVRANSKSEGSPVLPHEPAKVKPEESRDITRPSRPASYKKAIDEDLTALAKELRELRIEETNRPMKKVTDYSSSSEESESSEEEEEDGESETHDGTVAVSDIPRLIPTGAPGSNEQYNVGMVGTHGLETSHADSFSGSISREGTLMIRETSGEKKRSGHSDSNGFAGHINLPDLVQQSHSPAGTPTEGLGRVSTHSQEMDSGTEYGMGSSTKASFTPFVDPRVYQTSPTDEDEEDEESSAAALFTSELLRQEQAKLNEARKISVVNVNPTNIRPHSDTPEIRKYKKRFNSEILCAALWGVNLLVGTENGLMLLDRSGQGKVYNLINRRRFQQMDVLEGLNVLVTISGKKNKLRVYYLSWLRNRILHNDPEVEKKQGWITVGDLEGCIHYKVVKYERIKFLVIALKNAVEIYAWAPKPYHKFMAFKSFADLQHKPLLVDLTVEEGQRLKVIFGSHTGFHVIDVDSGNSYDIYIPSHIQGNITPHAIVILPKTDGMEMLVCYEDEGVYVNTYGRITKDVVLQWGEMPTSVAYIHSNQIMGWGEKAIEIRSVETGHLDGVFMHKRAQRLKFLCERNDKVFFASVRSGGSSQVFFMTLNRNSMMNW
Chain of Phosphatidylinositol 5-phosphate 4-kinase type-2 gamma (Homo sapiens) (Q8TBX8 whole entry): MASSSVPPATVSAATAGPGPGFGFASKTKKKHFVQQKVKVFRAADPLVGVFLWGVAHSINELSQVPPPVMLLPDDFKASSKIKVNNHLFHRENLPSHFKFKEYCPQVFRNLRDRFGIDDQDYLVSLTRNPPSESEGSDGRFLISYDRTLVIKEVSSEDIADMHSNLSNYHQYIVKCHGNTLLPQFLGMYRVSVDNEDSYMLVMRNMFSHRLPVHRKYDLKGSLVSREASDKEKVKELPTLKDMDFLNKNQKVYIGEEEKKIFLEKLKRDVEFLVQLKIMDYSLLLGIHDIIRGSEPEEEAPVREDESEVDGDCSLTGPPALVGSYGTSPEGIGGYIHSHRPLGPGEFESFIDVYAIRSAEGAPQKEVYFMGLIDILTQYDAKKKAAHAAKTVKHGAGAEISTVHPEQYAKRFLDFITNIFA
Chain of Serine/threonine-protein kinase DCLK1 (Homo sapiens) (O15075 whole entry): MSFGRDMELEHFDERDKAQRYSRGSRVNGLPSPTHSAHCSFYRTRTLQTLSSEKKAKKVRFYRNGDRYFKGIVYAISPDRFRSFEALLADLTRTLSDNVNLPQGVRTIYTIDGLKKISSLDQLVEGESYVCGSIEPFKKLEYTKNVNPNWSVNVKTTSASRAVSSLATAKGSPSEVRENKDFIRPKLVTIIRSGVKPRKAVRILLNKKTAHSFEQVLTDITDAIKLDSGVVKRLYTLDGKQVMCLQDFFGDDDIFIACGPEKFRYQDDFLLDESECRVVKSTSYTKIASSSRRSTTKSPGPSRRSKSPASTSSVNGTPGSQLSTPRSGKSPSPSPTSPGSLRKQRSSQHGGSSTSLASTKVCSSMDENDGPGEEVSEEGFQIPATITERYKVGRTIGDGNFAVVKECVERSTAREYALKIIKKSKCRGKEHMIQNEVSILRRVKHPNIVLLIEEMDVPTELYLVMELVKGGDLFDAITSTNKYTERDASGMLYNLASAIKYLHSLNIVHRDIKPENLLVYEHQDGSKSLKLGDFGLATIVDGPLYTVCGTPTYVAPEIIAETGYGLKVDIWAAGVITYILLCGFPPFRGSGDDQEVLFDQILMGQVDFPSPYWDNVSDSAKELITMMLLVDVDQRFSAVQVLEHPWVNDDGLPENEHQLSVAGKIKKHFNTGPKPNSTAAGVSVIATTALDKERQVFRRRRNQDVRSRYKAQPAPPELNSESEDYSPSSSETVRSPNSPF
Chain of Protein kinase C delta type (Homo sapiens) (Q05655 whole entry, looked up): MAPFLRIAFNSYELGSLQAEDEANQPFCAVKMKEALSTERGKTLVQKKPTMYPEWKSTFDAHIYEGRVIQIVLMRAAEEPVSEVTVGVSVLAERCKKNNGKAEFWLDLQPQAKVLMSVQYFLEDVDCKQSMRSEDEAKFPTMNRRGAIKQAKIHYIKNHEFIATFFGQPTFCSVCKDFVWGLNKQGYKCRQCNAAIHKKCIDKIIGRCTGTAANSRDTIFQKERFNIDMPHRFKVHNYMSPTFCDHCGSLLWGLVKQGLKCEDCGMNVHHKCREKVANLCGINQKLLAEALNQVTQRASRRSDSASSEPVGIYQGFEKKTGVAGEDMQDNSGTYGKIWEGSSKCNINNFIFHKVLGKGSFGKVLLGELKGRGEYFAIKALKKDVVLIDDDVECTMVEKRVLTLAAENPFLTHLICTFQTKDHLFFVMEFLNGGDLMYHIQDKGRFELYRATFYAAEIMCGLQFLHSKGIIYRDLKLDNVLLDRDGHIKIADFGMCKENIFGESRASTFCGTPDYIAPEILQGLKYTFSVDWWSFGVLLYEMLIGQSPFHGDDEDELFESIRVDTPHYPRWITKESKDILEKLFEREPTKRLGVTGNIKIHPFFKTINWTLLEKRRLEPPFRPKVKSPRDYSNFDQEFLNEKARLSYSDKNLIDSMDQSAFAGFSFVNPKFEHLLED

## O=C(N1CCS(=O)(=O)CC1)N1C[C@H](c2ccc(OC(F)(F)F)cc2)C[C@H](c2nc(C3CC3)no2)C1 [BAY-386]
[1]
  residual activity: 100%
[2]
  % Inhibition of Control Agonist Response (Mean n=2): 41.9%
  % of Control Agonist Response (Mean n=2): 0.7%
[3]
  residual activity: 93%
[4]
  residual activity: 79%
[5]
  residual activity: 75%
[6]
  residual activity: 100%
[7]
  residual activity: 100%
[8]
  residual activity: 100%
[9]
  residual activity: 100%
[10]
  % Inhibition of Control Agonist Response (Mean n=2): 23.3%
  % of Control Agonist Response (Mean n=2): 1.8%
[11]
  residual activity: 100%
[12]
  residual activity: 18%
[13]
  residual activity: 96%
[14]
  residual activity: 100%
[15]
  residual activity: 91%
[16]
  residual activity: 100%
[17]
  residual activity: 100%
[18]
  residual activity: 85%
[19]
  residual activity: 100%
[20]
  residual activity: 100%
[21]
  residual activity: 100%
[22]
  residual activity: 100%
[23]
  residual activity: 100%
[24]
  residual activity: 100%
[25]
  residual activity: 100%
[26]
  residual activity: 66%
[27]
  residual activity: 100%
[28]
  residual activity: 100%
[29]
  residual activity: 100%
[30]
  residual activity: 90%
[31]
  residual activity: 79%
[32]
  residual activity: 96%
[33]
  % Inhibition of Control Agonist Response (Mean n=2): 57%
  % of Control Agonist Response (Mean n=2): 12.8%
[34]
  residual activity: 100%
[35]
  residual activity: 100%
[36]
  residual activity: 100%
[37]
  residual activity: 100%
[38]
  residual activity: 66%

## Cc1noc([C@H]2C[C@@H](c3ccc(C(F)(F)F)cc3)CN(C(=O)N3CCS(=O)(=O)C3)C2)n1 [BAY-448]
[1]
  residual activity: 100%
[2]
  % Inhibition of Control Agonist Response (Mean n=2): 29.1%
  % of Control Agonist Response (Mean n=2): -4.2%
[3]
  residual activity: 90%
[4]
  residual activity: 88%
[5]
  residual activity: 99%
[6]
  residual activity: 90%
[7]
  residual activity: 99%
[8]
  residual activity: 66%
[9]
  residual activity: 75%
[10]
  % Inhibition of Control Agonist Response (Mean n=2): 2.1%
  % of Control Agonist Response (Mean n=2): 0.3%
[11]
  residual activity: 100%
[12]
  residual activity: 100%
[13]
  residual activity: 89%
[14]
  residual activity: 100%
[15]
  residual activity: 92%
[16]
  residual activity: 100%
[17]
  residual activity: 100%
[18]
  residual activity: 100%
[19]
  residual activity: 100%
[20]
  residual activity: 100%
[21]
  residual activity: 100%
[22]
  residual activity: 100%
[23]
  residual activity: 100%
[24]
  residual activity: 100%
[25]
  residual activity: 99%
[26]
  residual activity: 99%
[27]
  residual activity: 100%
[28]
  residual activity: 98%
[29]
  residual activity: 100%
[30]
  residual activity: 65%
[31]
  residual activity: 100%
[32]
  residual activity: 100%
[33]
  % Inhibition of Control Agonist Response (Mean n=2): 10.2%
  % of Control Agonist Response (Mean n=2): 1.2%
[34]
  residual activity: 70%
[35]
  residual activity: 100%
[36]
  residual activity: 100%
[37]
  residual activity: 100%
[38]
  residual activity: 83%
